“Also recorded” adds a separate entry of the source. Where two headings read alike, the source gives them in different places.
Experiments:
Calu-3 cells = assay: Cytotoxicity in mock-infected Calu-3 cells (XTT); settings: read-out: CC50, Calu-3 cells, three days
[1] = target: T1, human recombinant cathepsin L (Homo sapiens, UniProt P07711); assay: biochemical; format: biochemical
T1 construct: made in house; host or cells: Escherichia coli
Experimental: Cathepsin L inhibition was assessed as reported. Briefly, human recombinant cathepsin L was expressed in Escherichia coli[33]. Enzymatic activity was determined in 100 mM acetate buffer (pH 5.5) containing 0.1% PEG 8000, 5 mM cysteine and 1.5 mM EDTA. The enzyme was first activated in assay buffer for 5 min at 37 °C, after which it was added to the wells of a black microplate containing the Z-Phe-Arg-AMC substrate (Bachem) and compounds. Formation of the fluorescent cleavage product was monitored for 50 min at 37 °C, using a Tecan Infinit M1000 spectrofluorimeter set at 460 nm emission and 380 nm excitation wavelength. All assay mixtures contained 5% (v/v) DMSO and 0.01% Triton X-100 to prevent false-positive inhibition due to formation of compound aggregates. All measurements were performed in triplicate and repeated twice. The relative inhibition was calculated using the equation: Relative inhibition (%) = 100(1 − vi/vo), where vi and vo designate the reaction velocities in the presence and absence of inhibitor, respectively. IC50 values were determined from nine data points at different inhibitor concentrations.

[2] = system: Escherichia coli ATCC 25218; assay: MIC against Gram-negative strain; settings: ATCC25218
E. faecium = assay: microbe, parasite or virus in culture; format: cell-based
S. epidermidis = assay: microbe, parasite or virus in culture; format: cell-based
SARS-CoV-2 pseudovirus [3] = assay: microbe, parasite or virus in culture; format: cell-based; settings: for EC50: A549-AT cells (ACE2 and TMPRSS2), luciferase signal, mean ± SEM of 3 tests, read-out: EC50, inhibition of SARS-CoV-2 pseudovirus entry in A549-AT cells; for Inhibition of pseudovirus entry in A549-AT cells (in words): TMPRSS2-mediated uptake
S. haemolyticus = assay: MIC, broth microdilution; format: cell-based
S.pyogenes = assay: MIC, broth microdilution; format: cell-based
S. aureus = assay: MIC, broth microdilution; format: cell-based
E. faecalis = assay: MIC, broth microdilution; format: cell-based
HEL cells = assay: Cytotoxicity in mock-infected HEL cells (MTS); format: cell-based, human; settings: mock-infected HEL cells, MTS, mean of 2–3 tests
[4] = system: Klebsiella pneumoniae ST258 clone K 160/09; assay: MIC against Gram-negative strain; settings: Klebsiella pneumoniae ST258 clone K 160/09
SARS-CoV-2 [5] = assay: microbe, parasite or virus in culture; format: cell-based; settings: for EC50: Calu-3 cells, three days, XTT, read-out: EC50, CPE reduction, SARS-CoV-2 in Calu-3 cells
[6] = system: Pseudomonas aeruginosa ATCC 27853; assay: MIC against Gram-negative strain; settings: ATCC27853
VeroE6 cells = assay: Cytotoxicity in mock-infected VeroE6 cells (XTT); format: cell-based, African green monkey
[7] = system: Acinetobacter baumannii ATCC BAA1605; assay: MIC against Gram-negative strain; settings: Acinetobacter baumannii ATCC BAA1605
SARS-CoV-2 [8] = assay: microbe, parasite or virus in culture; format: cell-based; settings: for EC50: Vero E6 cells, three days, XTT, read-out: EC50, CPE reduction, SARS-CoV-2 in Vero E6 cells
HCoV-229E = assay: CPE reduction assay, HCoV-229E in HEL cells; format: cell-based; settings: for EC50: MTS, mean of 2–3 tests
SARS-CoV-2 pseudovirus [9] = assay: microbe, parasite or virus in culture; format: cell-based; settings: for EC50: Vero cells, luciferase signal, mean ± SEM of 3 tests, read-out: EC50, inhibition of SARS-CoV-2 pseudovirus entry in Vero cells; for Inhibition of pseudovirus entry in Vero cells (in words): cathepsin-dependent endosomal pathway
SARS-CoV-2 3CL^Pro = SARS-CoV-2 3CL^Pro (Severe acute respiratory syndrome coronavirus 2, UniProt P0DTD1); assay: biochemical; format: biochemical
[10] = Cytotoxicity in mock-infected HEL cells (MTS); format: cell-based, human; settings: human; mock-infected HEL cells, MTS, mean of 2–3 tests
in vitro = settings: human
[11] = Cytotoxicity in mock-infected VeroE6 cells (XTT); format: cell-based, African green monkey; settings: African green monkey; mock-infected Vero E6 cells, three days, XTT
[12] = Severe acute respiratory syndrome-related coronavirus

T1 sequence (P07711 114-333): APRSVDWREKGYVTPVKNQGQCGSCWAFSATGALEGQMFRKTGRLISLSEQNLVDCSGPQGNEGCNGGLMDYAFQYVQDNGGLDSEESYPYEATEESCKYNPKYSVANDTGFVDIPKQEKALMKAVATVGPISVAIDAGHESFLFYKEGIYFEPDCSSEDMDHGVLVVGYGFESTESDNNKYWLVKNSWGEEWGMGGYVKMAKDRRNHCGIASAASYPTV

teicoplanin [reference compound]
CC50 (Calu-3 cells): > 100 µM | Cathepsin L inhibition (in words) [1]: inactive | Cathepsin L inhibition at 50 µM ([1]; at 50 µM): 5% at 50 µM | MIC [2]: 256 µg/mL | Average MIC value (E. faecium; E. faecium VAN^R,TEI^R/VanA, 8 strains): > 64 µg/mL | Average MIC value (E. faecium; E. faecium VAN^S, TEI^S, 1 strain): 0.5 µg/mL | MIC value (E. faecium; E.faecium E335, VAN,TEI,LNZ/VanA): >64 µg/mL | MIC value (E. faecium; E.faecium E355, VAN,TEI,LNZ/VanA): >64 µg/mL | MIC value (E. faecium; E.faecium E832, VAN,TEI,LNZ/VanA): >64 µg/mL | MIC value (E. faecium; E.faecium E854, VAN,TEI,LNZ/VanA): >64 µg/mL | MIC value (E. faecium; E.faecium E859, VAN,TEI,LNZ/VanA): >64 µg/mL | MIC value (E. faecium; E.faecium E1114, VAN,TEI,LNZ/VanA): >64 µg/mL | MIC value (E. faecium; E.faecium E1131, VAN,TEI,LNZ/VanA): >64 µg/mL | MIC value (E. faecium; E.faecium E1132, VAN,TEI,LNZ/VanA): >64 µg/mL | MIC value (E. faecium; E.faecium TX0016): 0,5 µg/ml | Average MIC value (S. epidermidis; S. epidermidis mecA, 6 strains): 26.7 µg/mL | MIC value (S. epidermidis; S.epidermidis ORI_R1, mecA): 32 µg/mL | MIC value (S. epidermidis; S.epidermidis ORI_R2, mecA): 16 µg/mL | MIC value (S. epidermidis; S.epidermidis ORI_R3, mecA): 32 µg/mL | MIC value (S. epidermidis; S.epidermidis ORI_R4, mecA): 16 µg/mL | MIC value (S. epidermidis; S.epidermidis TEI_R1, mecA): 32 µg/mL | MIC value (S. epidermidis; S.epidermidis TEI_R2, mecA): 32 µg/mL | EC50 (SARS-CoV-2 pseudovirus [3]): > 125 µM | Inhibition of pseudovirus entry in A549-AT cells (in words) (SARS-CoV-2 pseudovirus [3]): inactive | Average MIC value (S. haemolyticus; S. haemolyticus mecA, 6 strains): 112 µg/mL | MIC value (S. haemolyticus; S.haemolyticus DALB_R1, mecA): 128 µg/mL | MIC value (S. haemolyticus; S.haemolyticus DALB_R2, mecA): 256 µg/mL | MIC value (S. haemolyticus; S.haemolyticus DALB_R3, mecA): 32 µg/mL | MIC value (S. haemolyticus; S.haemolyticus DALB_R4, mecA): 64 µg/mL | MIC value (S. haemolyticus; S.haemolyticus DALB_R5, mecA): 128 µg/mL | MIC value (S. haemolyticus; S.haemolyticus ORI_R1, mecA): 64 µg/mL | MIC value (S.pyogenes; S.pyogenes H232): 0,03125 µg/ml | MIC value (S.pyogenes; S.pyogenes H550): 0,25 µg/ml | MIC value (S.pyogenes; S.pyogenes H578): 0,25 µg/ml | MIC value (S. aureus; S. aureus 73OL, MRSA): 0,5 µg/ml | MIC value (S. aureus; S. aureus 214OL, MRSA): 2 µg/mL | MIC value (S. aureus; S. aureus 1041OL, MRSA): 1 µg/mL | MIC value (S. aureus; S. aureus A6918, MRSA): 1 µg/mL | MIC value (S. aureus; S. aureus A6919, MRSA): 0,5 µg/ml | MIC value (S. aureus; S. aureus ATCC29213, MSSA): 0,5 µg/ml | Average MIC value (S. aureus; S. aureus CA-MRSA, 1 strain): 0.125 µg/mL | Average MIC value (S. aureus; S. aureus MRSA, 7 strains): 1.43 µg/mL | MIC value (S. aureus; S. aureus MSSA476, MSSA): 0,25 µg/ml | Average MIC value (S. aureus; S. aureus MSSA, 4 strains): 0.375 µg/mL | MIC value (S. aureus; S. aureus Mu50, MRSA): 4 µg/mL | MIC value (S. aureus; S. aureus N315, MRSA): 1 µg/mL | MIC value (S. aureus; S. aureus Newman, MSSA): 0,25 µg/ml | MIC value (S. aureus; S. aureus SA564, MSSA): 0,5 µg/ml | MIC value (S. aureus; S. aureus USA300, CA-MRSA): 0,125 µg/ml | Average MIC value (E. faecalis; E. faecalis VAN^R,TEI^R/VanA, 1 strain): > 64 µg/mL | Average MIC value (E. faecalis; E. faecalis VAN^S, TEI^S, 2 strains): 0.25 µg/mL | MIC value (E. faecalis; E.faecalis JH2-2): 0,25 µg/ml | MIC value (E. faecalis; E.faecalis OG1RF): 0,25 µg/ml | MIC value (E. faecalis; E.faecalis V583, VAN,TEI/VanA): >64 µg/mL | CC50 (HEL cells): > 100 µM | MIC [4]: 256 µg/mL | Activity against SARS-CoV-2 in Calu-3 cells (in words) (SARS-CoV-2 [5]): inactive; also recorded: does not inhibit | EC50 (SARS-CoV-2 [5]): > 100 µM | MIC [6]: 256 µg/mL | CC50 (VeroE6 cells; mock-infected Vero E6 cells, three days, XTT): > 100 µM | MIC [7]: 128 µg/mL | EC50 (SARS-CoV-2 [8]): 16 ± 1.7 µM | Activity against HCoV-229E CPE (in words) (HCoV-229E): inactive | EC50 (HCoV-229E): > 100 µM | EC50 (SARS-CoV-2 pseudovirus [9]): 21 ± 5 µM | Inhibition of pseudovirus entry in Vero cells (in words) (SARS-CoV-2 pseudovirus [9]): moderately active | 3CL^Pro % inhibition at 200 µM (SARS-CoV-2 3CL^Pro; at 200 µM): 13 ± 8%

O=C(O)CCC(F)(F)C(F)(F)C(F)(F)C(F)(F)C(F)(F)C(F)(F)C(F)(F)C(F)(F)F [Compound 14]
IC50 ([1]; pH 5.5, Z-Phe-Arg-AMC substrate, read-out: Cathepsin L IC50): > 500 µM | Inhibition of pseudovirus entry in A549-AT cells (in words) (SARS-CoV-2 pseudovirus [3]): inhibited both entry routes | EC50 (SARS-CoV-2 pseudovirus [3]; [12]): 24 ± 6 µM | CC50 [10]: > 100 µM | Activity against SARS-CoV-2 in Calu-3 cells (in words) (SARS-CoV-2 [5]): active | EC50 (SARS-CoV-2 [5]; Severe acute respiratory syndrome coronavirus 2, 72 h): 46 ± 1.9 µM | CC50 (in vitro): ~53 µM | Toxicity in VeroE6 cells (in words) (VeroE6 cells; VeroE6 cells): quite toxic | CC50 [11]: 39 ± 1.4 µM | EC50 (SARS-CoV-2 [8]; Severe acute respiratory syndrome coronavirus 2, Vero C1008, 72 h): 19 ± 1.5 µM | Reduction of the CPE of SARS-CoV-2 in VeroE6 cells (in words) (SARS-CoV-2 [8]; VeroE6 cells): did show antiviral activity | EC50 (HCoV-229E; Human coronavirus 229E): 69 µM | EC50 (SARS-CoV-2 pseudovirus [9]; [12]): 13 ± 5 µM | Inhibition of pseudovirus entry in Vero cells (in words) (SARS-CoV-2 pseudovirus [9]): inhibited both entry routes | inhibition at 200 µM (SARS-CoV-2 3CL^Pro): 12 ± 2%
